Test results taken from patent publication US7504537B2, “Hydroxamic acid derivative and MMP inhibitor containing the same as active ingredient” (Dainippon Sumitomo Pharma Co., Ltd., priority 2001, dated 2009).

How the values were obtained:
Format in all cases: biochemical
[1] = target: T1, MMP-3 (Homo sapiens, UniProt P08254); assay: Test 1 Test on MMP-3 inhibiting activity (fluorogenic peptide substrate); conditions: activated MMP-3, 37° C.; read-out: MMP-3 inhibition activity value
T1 construct: C-terminal truncated cDNA in which the cDNA encodes human prostromelysin; made in house; host or cells: E. coli
Method: Test 1 Test on MMP-3 Inhibiting Activity
C-terminal truncated cDNA in which the cDNA encodes human prostromelysin, was subcloned (proMMP-3, cDNA sequence in Nature, 348, 699-704 (1990)), was expressed in E. coli and then, the expressed protein was purified in accordance with the method described in Biochemistry 30, 6476-6483 (1991). proMMP-3 activation was carried out by treating with 1 mM 4-aminophenyl mercuric acetate for 60 minutes at 37° C.
Enzyme activity test was conducted by the method of C. G. Knight (FEBS Lett., 296(3), 263-266 (1992)).
(§1) A mixture of activated MMP-3 (20 nM, 10 μl), buffer solution (70 μl, pH 7.5 solution containing 100 mM Tris-HCl solution, 10 mM calcium chloride solution, 100 mM sodium chloride solution and 0.05% Brij-35 solution), MOCAc-Pro-Leu-Gly-Leu-A2pr(DNP)-Ala-Arg-NH2 in 0.1% DMSO solution (100 μM, 10 μl) and a test compound in DMSO solution was incubated for 1.5 hours at 37° C. The mixture was put on a 96 well-plate (100 μl/well) and the plate was cultured at 37° C. The enzyme activity in the presence of the compound was measured based on fluorescence intensity (λex 320 nm, λem 405 nm), and IC50 was calculated.

[2] = target: T2, MMP-13 (Homo sapiens, UniProt P45452); assay: Test 2 Test on MMP-13 inhibition activity (fluorogenic peptide substrate); conditions: activated MMP-13, 37° C.
T2 construct: a fragment of 767 bp encoding original 84 amino acids of complete MMP-13 and encoding 164 amino acids; made in house; host or cells: E. coli BL21 (DE3), pET11a
Text: Test 2 Test on MMP-13 Inhibition Activity
In order to subcloning C-terminal truncated cDNA in which the cDNA encodes procollagenase-3 (proMMP-13) (J. Biol. Chem., 269(24), 16766-16773 (1994)), two synthesized oligonucleotide primer fragments: • (5′-[…]-3′ and 5′-[…]-3′: In former the sequence for specific NdeI site (under line) including first methionine is included, and in latter terminal codon and BamHI site (under lined) are included.) were used with human cartilage cell cDNA library for PCR. Due to these primers and Pfu DNA polymelase (STRATAGENE) for PCR, there was obtained a fragment of 767 bp encoding original 84 amino acids of complete MMP-13 and encoding 164 amino acids. The said fragment was cut out with digestion by NdeI and BamHI, and the fragment was annealed to NdeI site and BamHI site of pET11a (STRATAGENE). The recombinant plasmid was transformed into E. coli BL21 (DE3) and the bacteria were cultivated. The crude cell extract was prepared according to the method of Biochemistry. The said extract was dialyzed with 20 mM Tris-HCl (pH 7.2)/5 mM CaCl2/0.02% NaN3 solution, treated with SP-sepharose HP column (1.6×10 cm, Amasham-Pharmacia biotec), and the eluting was carried out by liner gradient from 0 to 0.3 m of sodium chloride solution (50 ml) (partially purified proMMP-13 was eluted at about 0.2M.) The eluted fraction was dialyzed with 20 mM Tris-HCl (pH 7.9)/5 mM CaCl2/200 mM (NH4)2SO4/0.02% NaN3 solution, treated with phenylsepharose HP column (1.6×5 cm, Amersham-Pharmacia biotec), and the eluting was carried out by liner gradient from 0.2M to 0M sulfuric acid ammonium solution (purified proMMP-13 was eluted at about 50 mM.). The eluted fraction was concentrated by YM-5 ultrafilter membrane, and activated by 4-aminophenyl mercuric acetate. Activated MMP-13 was treated with gel filtration chromatography in accordance with the method of Biochemistry to be separated from propeptide. Inhibiting Test Method
Enzyme activity test was carried out by the method of G. Knight (FEBS Lett., 296(3), 263-266 (1992)).
as §1, with “MMP-13” for “MMP-3”, “Briji-35” for “Brij-35”, “μl/wel),” for “μl/well)”, “incubated” for “cultured”

[3] = target: MMP-9 (Homo sapiens, UniProt P14780); assay: Test 4 MMP-9 inhibiting activity test (biotin labeled gelatin); conditions: activated human MMP-9, biotin labeled gelatin; read-out: MMP-9 inhibition activity value
Method: Test 4 MMP-9 Inhibiting Activity Test
A mixture of buffer solution (190 μl; pH 7.5 solution containing 50 mM Tris-HCl solution, 0.5 m sodium chloride solution and 5 mM calcium chloride solution), human MMP-9 (10 μl) and trypsin solution (20 μl; trypsin 3 mg in activated buffer (5 ml)) was incubated at 37° C. for 10 minutes. Thereto was added aprotinine solution (20 μl; aprotinine (3 mg) in buffer (5 ml)) and the mixture was incubated at 37° C. for 10 minutes, followed by addition of buffer (2 ml). The mixture was preserved under cooling with ice until use.
A mixture of DMSO solution (2 μl) containing definite concentration of the compound, biotin labeled gelatin (188 μl) and activated MMP-9 solution (10 μl) was put on a 96 well-assay plate (protein nonabsorbance type), well agitated, and incubated at 37° C. for 1 hour. This solution was transferred to Streptavidin-coating plate, and agitated at 15° C. to 30° C. for 30 minutes. And then the solution was washed with TTC buffer solution (200 μl) three times. Thereto was added Streptavidin-POD (200 μl) and the mixture was agitated at 15° C. to 25° C. for 60 minutes, followed by washing with TTC buffer (200 μl) three times. Then, ABTS solution (200 μl) was added thereto and after standing at room temperature for 40 minutes, furuorescence intensity was measured at 405 nm and IC50 was calculated.
In case of the above test, DMSO (2 μl) was used as a control instead of a sample solution. In the case of a blank, DMSO (2 μl) instead of the sample solution and the solution (10 μl) prepared in the same manner as preparation of […] but without adding 1.2 Uhuman MMP-9, instead of activated MMP-9 solution (10 μl), were used.

Sequence of MMP-9 (P14780 107-707 limits assumed): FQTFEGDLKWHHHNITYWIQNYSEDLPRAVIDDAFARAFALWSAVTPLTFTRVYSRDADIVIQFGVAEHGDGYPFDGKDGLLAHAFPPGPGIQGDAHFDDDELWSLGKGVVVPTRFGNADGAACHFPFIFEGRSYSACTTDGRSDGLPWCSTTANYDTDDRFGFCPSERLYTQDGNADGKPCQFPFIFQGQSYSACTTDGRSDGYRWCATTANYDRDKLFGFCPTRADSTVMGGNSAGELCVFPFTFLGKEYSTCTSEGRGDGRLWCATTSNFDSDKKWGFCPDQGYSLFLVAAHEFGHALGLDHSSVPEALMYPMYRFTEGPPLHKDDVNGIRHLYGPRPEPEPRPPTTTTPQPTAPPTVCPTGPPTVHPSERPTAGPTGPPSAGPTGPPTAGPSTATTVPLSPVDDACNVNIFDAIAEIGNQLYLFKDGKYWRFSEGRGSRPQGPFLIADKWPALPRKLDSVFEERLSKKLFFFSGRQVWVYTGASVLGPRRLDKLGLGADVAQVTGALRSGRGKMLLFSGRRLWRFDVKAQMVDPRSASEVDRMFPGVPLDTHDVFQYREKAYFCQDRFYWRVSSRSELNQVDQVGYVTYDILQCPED
T1 sequence (P08254 100-272 limits assumed): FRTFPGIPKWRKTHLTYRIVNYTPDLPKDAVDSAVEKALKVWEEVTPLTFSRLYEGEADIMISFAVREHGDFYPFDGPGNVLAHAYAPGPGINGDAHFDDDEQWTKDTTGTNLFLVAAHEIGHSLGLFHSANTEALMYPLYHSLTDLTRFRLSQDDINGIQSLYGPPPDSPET

| Compound | IC50 [1] [nM] | IC50 [2] [nM] | IC50 [3] [nM] |
| --- | --- | --- | --- |
| CS(=O)(=O)c1ccc(Oc2ccc(S(=O)(=O)N(CC(=O)NO)Cc3ccncc3)cc2)cc1 [Example 42, N′^1′-Hydroxy-N′^2′-({4-[4-(methylsulfonyl)phenoxy]phenyl}sulfonyl)-N′^2′-(4-pyridinylmethyl)glycinamide] | 67.5 | 4.02 | 4300 |
| CCOCCN(C1(C(=O)NO)CCCC1)S(=O)(=O)c1ccc(Oc2ccc(S(C)(=O)=O)cc2)cc1 [Example 45, 1-[(2-Ethoxyethyl)({4-[4-(methylsulfonyl)phenoxy]phenyl}sulfonyl)amino]-N-hydroxycyclopentanecarboxamide] | 1.5 | 0.6 | > 100 |
| CS(=O)(=O)c1ccc(Oc2ccc(S(=O)(=O)N(CCC(=O)O)CC(=O)NO)cc2)cc1 [Example 36, N-[2-(Hydroxyamino)-2-oxoethyl]-N-({4-[4-(methylsulfonyl)phenoxy]phenyl}sulfonyl)-β-alanine] | 37.1 | 3.81 | > 100 |
| COCCCN(CC(=O)NO)S(=O)(=O)c1ccc(Oc2ccc(S(C)(=O)=O)cc2)cc1 [Example 43, N^1-Hydroxy-N^2-(3-methoxypropyl)-N^2-({4-[4-(methylsulfonyl)phenoxy]phenyl}sulfonyl)glycinamide] | 8.5 | < 0.5 | 600 |
| CS(=O)(=O)c1ccc(Oc2ccc(S(=O)(=O)N(CCC(=O)O)C3(C(=O)NO)CCCC3)cc2)cc1 [Example 27, N-{1-[(Hydroxyamino)carbonyl]cyclopentyl}-N-({4-[4-(methylsulfonyl)phenoxy]phenyl}sulfonyl)-β-alanine] | 89.4 | 21.3 | > 10000 |
